# Structures can show the parent of a compound that is named as a salt.
# Tested on: patients with seasonal allergic rhinitis (SAR)
# Assay: MP 428 study: individual symptom severity scores (runny nose, itchy nose, sneezing, congestion; 0-3 scale)
# Format: in vivo, human
# Conditions: Intent-to-Treat Population
# Protocol: A two-week, randomized, double-blind study, which evaluated the effects of the co-administration of ASTELIN® (azelastine hydrochloride (HCl)) and FLONASE® (fluticasone propionate) compared to either product alone in patients with seasonal allergic rhinitis (SAR) was conducted during the 2006 Texas mountain cedar season. After a 5-day placebo lead-in period, 151 patients with moderate-to-severe allergic rhinitis symptoms were randomized to either: (1) (49 total patients) ASTELIN® (azelastine hydrochloride (HCl)) plus placebo saline nasal spray 2 sprays per nostril, 15 minutes apart, twice daily (AM & PM); (2) (50 total patients) FLONASE® (fluticasone propionate) plus placebo saline nasal spray, 2 sprays per nostril, 15 minutes apart, once daily (AM) and two sessions of placebo saline nasal spray, 2 sprays per nostril, 15 minutes apart (PM); or (3) (52 total patients) the co-administration of ASTELIN® (azelastine hydrochloride (HCl)) 2 sprays per nostril plus FLONASE® (fluticasone propionate) 2 sprays per nostril (AM), 15 minutes apart, and ASTELIN® (azelastine hydrochloride (HCl)) 2 sprays per nostril plus placebo saline nasal spray, 15 minutes apart, (PM) for a 2-week double-blind treatment period.
# The primary efficacy variable was the change from baseline in the Total Nasal Symptom Score (TNSS), which comprised sneezing, itchy nose, runny nose, and nasal congestion (individual symptoms scores were assigned a value between 0 and 3, where 0=no symptoms and 3=severe symptoms). This study was not statistically designed to assess the differences between ASTELIN® and FLONASE®.
# The results of the clinical trial are summarized and presented in Appendix A hereinbelow and in FIGS. 1-6. […] FIGS. 2-5 show the mean improvement in severity score (0-3 scale) from baseline for the symptoms of runny nose, itchy nose, sneezing and congestion, respectively.
smiles,measurement,setting,value
"CN1CCCC(n2nc(Cc3ccc(Cl)cc3)c3ccccc3c2=O)CC1 (racemic) [Azelastine, (±)-1-(2H)-phthalazinone, 4-[(4-chlorophenyl)methyl]-2-(hexahydro-1-methyl-1H-azepin-4-yl)-, mono-hydrochloride]","Change from Baseline in AM and PM Combined Nasal Symptom Score: Congestion, LS Mean",Day 2,−0.73
same,"Change from Baseline in AM and PM Combined Nasal Symptom Score: Congestion, Mean",Day 2,−0.78
same,"Change from Baseline in AM and PM Combined Nasal Symptom Score: Congestion, Median",Day 2,−0.17
same,"Change from Baseline in AM and PM Combined Nasal Symptom Score: Itchy Nose, LS Mean",Day 2,−0.58
same,"Change from Baseline in AM and PM Combined Nasal Symptom Score: Itchy Nose, Mean",Day 2,−0.61
same,"Change from Baseline in AM and PM Combined Nasal Symptom Score: Itchy Nose, Median",Day 2,−0.50
same,"Change from Baseline in AM and PM Combined Nasal Symptom Score: Runny Nose, LS Mean",Day 2,−0.70
same,"Change from Baseline in AM and PM Combined Nasal Symptom Score: Runny Nose, Mean",Day 2,−0.72
same,"Change from Baseline in AM and PM Combined Nasal Symptom Score: Runny Nose, Median",Day 2,−0.42
same,"Change from Baseline in AM and PM Combined Nasal Symptom Score: Sneezing, LS Mean",Day 2,−1.09
same,"Change from Baseline in AM and PM Combined Nasal Symptom Score: Sneezing, Mean",Day 2,−1.11
same,"Change from Baseline in AM and PM Combined Nasal Symptom Score: Sneezing, Median",Day 2,−0.90
same,"Percent Change from Baseline in AM and PM Combined Nasal Symptom Score: Congestion, LS Mean",Day 2,−13.19%
same,"Percent Change from Baseline in AM and PM Combined Nasal Symptom Score: Congestion, Mean",Day 2,−14.05%
same,"Percent Change from Baseline in AM and PM Combined Nasal Symptom Score: Congestion, Median",Day 2,−3.23%
same,"Percent Change from Baseline in AM and PM Combined Nasal Symptom Score: Itchy Nose, LS Mean",Day 2,−13.14%
same,"Percent Change from Baseline in AM and PM Combined Nasal Symptom Score: Itchy Nose, Mean",Day 2,−13.55%
same,"Percent Change from Baseline in AM and PM Combined Nasal Symptom Score: Itchy Nose, Median",Day 2,−11.11%
same,"Percent Change from Baseline in AM and PM Combined Nasal Symptom Score: Runny Nose, LS Mean",Day 2,−13.68%
same,"Percent Change from Baseline in AM and PM Combined Nasal Symptom Score: Runny Nose, Mean",Day 2,−14.08%
same,"Percent Change from Baseline in AM and PM Combined Nasal Symptom Score: Runny Nose, Median",Day 2,−7.98%
same,"Percent Change from Baseline in AM and PM Combined Nasal Symptom Score: Sneezing, LS Mean",Day 2,−26.72%
same,"Percent Change from Baseline in AM and PM Combined Nasal Symptom Score: Sneezing, Mean",Day 2,−26.94%
same,"Percent Change from Baseline in AM and PM Combined Nasal Symptom Score: Sneezing, Median",Day 2,−21.05%
same,"Change from Baseline in AM and PM Combined Nasal Symptom Score: Congestion, LS Mean",Day 3,−0.62
same,"Change from Baseline in AM and PM Combined Nasal Symptom Score: Congestion, Mean",Day 3,−0.68
same,"Change from Baseline in AM and PM Combined Nasal Symptom Score: Congestion, Median",Day 3,0.00
same,"Change from Baseline in AM and PM Combined Nasal Symptom Score: Itchy Nose, LS Mean",Day 3,−0.85
same,"Change from Baseline in AM and PM Combined Nasal Symptom Score: Itchy Nose, Mean",Day 3,−0.84
same,"Change from Baseline in AM and PM Combined Nasal Symptom Score: Itchy Nose, Median",Day 3,−0.75
same,"Change from Baseline in AM and PM Combined Nasal Symptom Score: Runny Nose, LS Mean",Day 3,−0.74
same,"Change from Baseline in AM and PM Combined Nasal Symptom Score: Runny Nose, Mean",Day 3,−0.79
same,"Change from Baseline in AM and PM Combined Nasal Symptom Score: Runny Nose, Median",Day 3,−1.00
same,"Change from Baseline in AM and PM Combined Nasal Symptom Score: Sneezing, LS Mean",Day 3,−0.99
same,"Change from Baseline in AM and PM Combined Nasal Symptom Score: Sneezing, Mean",Day 3,−0.97
same,"Change from Baseline in AM and PM Combined Nasal Symptom Score: Sneezing, Median",Day 3,−0.77
same,"Percent Change from Baseline in AM and PM Combined Nasal Symptom Score: Congestion, LS Mean",Day 3,−10.71%
same,"Percent Change from Baseline in AM and PM Combined Nasal Symptom Score: Congestion, Mean",Day 3,−11.70%
same,"Percent Change from Baseline in AM and PM Combined Nasal Symptom Score: Congestion, Median",Day 3,0.00%
same,"Percent Change from Baseline in AM and PM Combined Nasal Symptom Score: Itchy Nose, LS Mean",Day 3,−19.04%
same,"Percent Change from Baseline in AM and PM Combined Nasal Symptom Score: Itchy Nose, Mean",Day 3,−18.60%
same,"Percent Change from Baseline in AM and PM Combined Nasal Symptom Score: Itchy Nose, Median",Day 3,−16.67%
same,"Percent Change from Baseline in AM and PM Combined Nasal Symptom Score: Runny Nose, LS Mean",Day 3,−13.72%
same,"Percent Change from Baseline in AM and PM Combined Nasal Symptom Score: Runny Nose, Mean",Day 3,−14.69%
same,"Percent Change from Baseline in AM and PM Combined Nasal Symptom Score: Runny Nose, Median",Day 3,−16.67%
same,"Percent Change from Baseline in AM and PM Combined Nasal Symptom Score: Sneezing, LS Mean",Day 3,−23.56%
same,"Percent Change from Baseline in AM and PM Combined Nasal Symptom Score: Sneezing, Mean",Day 3,−22.81%
same,"Percent Change from Baseline in AM and PM Combined Nasal Symptom Score: Sneezing, Median",Day 3,−16.08%
same,"Change from Baseline in AM and PM Combined Nasal Symptom Score: Congestion, LS Mean",Day 4,−0.78
same,"Change from Baseline in AM and PM Combined Nasal Symptom Score: Congestion, Mean",Day 4,−0.82
same,"Change from Baseline in AM and PM Combined Nasal Symptom Score: Congestion, Median",Day 4,−0.92
same,"Change from Baseline in AM and PM Combined Nasal Symptom Score: Itchy Nose, LS Mean",Day 4,−1.01
same,"Change from Baseline in AM and PM Combined Nasal Symptom Score: Itchy Nose, Mean",Day 4,−1.00
same,"Change from Baseline in AM and PM Combined Nasal Symptom Score: Itchy Nose, Median",Day 4,−0.73
same,"Change from Baseline in AM and PM Combined Nasal Symptom Score: Runny Nose, LS Mean",Day 4,−0.76
same,"Change from Baseline in AM and PM Combined Nasal Symptom Score: Runny Nose, Mean",Day 4,−0.79
same,"Change from Baseline in AM and PM Combined Nasal Symptom Score: Runny Nose, Median",Day 4,−0.43
same,"Change from Baseline in AM and PM Combined Nasal Symptom Score: Sneezing, LS Mean",Day 4,−1.34
same,"Change from Baseline in AM and PM Combined Nasal Symptom Score: Sneezing, Mean",Day 4,−1.32
same,"Change from Baseline in AM and PM Combined Nasal Symptom Score: Sneezing, Median",Day 4,−1.00
same,"Percent Change from Baseline in AM and PM Combined Nasal Symptom Score: Congestion, LS Mean",Day 4,−13.79%
same,"Percent Change from Baseline in AM and PM Combined Nasal Symptom Score: Congestion, Mean",Day 4,−14.44%
same,"Percent Change from Baseline in AM and PM Combined Nasal Symptom Score: Congestion, Median",Day 4,−16.67%
same,"Percent Change from Baseline in AM and PM Combined Nasal Symptom Score: Itchy Nose, LS Mean",Day 4,−22.54%
same,"Percent Change from Baseline in AM and PM Combined Nasal Symptom Score: Itchy Nose, Mean",Day 4,−22.23%
same,"Percent Change from Baseline in AM and PM Combined Nasal Symptom Score: Itchy Nose, Median",Day 4,−13.79%
same,"Percent Change from Baseline in AM and PM Combined Nasal Symptom Score: Runny Nose, LS Mean",Day 4,−15.76%
same,"Percent Change from Baseline in AM and PM Combined Nasal Symptom Score: Runny Nose, Mean",Day 4,−16.23%
same,"Percent Change from Baseline in AM and PM Combined Nasal Symptom Score: Runny Nose, Median",Day 4,−7.98%
same,"Percent Change from Baseline in AM and PM Combined Nasal Symptom Score: Sneezing, LS Mean",Day 4,−32.76%
same,"Percent Change from Baseline in AM and PM Combined Nasal Symptom Score: Sneezing, Mean",Day 4,−31.90%
same,"Percent Change from Baseline in AM and PM Combined Nasal Symptom Score: Sneezing, Median",Day 4,−25.00%
same,"Change from Baseline in AM and PM Combined Nasal Symptom Score: Congestion, LS Mean",Day 5,−1.02
same,"Change from Baseline in AM and PM Combined Nasal Symptom Score: Congestion, Mean",Day 5,−1.07
same,"Change from Baseline in AM and PM Combined Nasal Symptom Score: Congestion, Median",Day 5,−0.90
same,"Change from Baseline in AM and PM Combined Nasal Symptom Score: Itchy Nose, LS Mean",Day 5,−1.11
same,"Change from Baseline in AM and PM Combined Nasal Symptom Score: Itchy Nose, Mean",Day 5,−1.10
same,"Change from Baseline in AM and PM Combined Nasal Symptom Score: Itchy Nose, Median",Day 5,−0.75
same,"Change from Baseline in AM and PM Combined Nasal Symptom Score: Runny Nose, LS Mean",Day 5,−0.96
same,"Change from Baseline in AM and PM Combined Nasal Symptom Score: Runny Nose, Mean",Day 5,−0.97
same,"Change from Baseline in AM and PM Combined Nasal Symptom Score: Runny Nose, Median",Day 5,−0.67
same,"Change from Baseline in AM and PM Combined Nasal Symptom Score: Sneezing, LS Mean",Day 5,−1.36
same,"Change from Baseline in AM and PM Combined Nasal Symptom Score: Sneezing, Mean",Day 5,−1.34
same,"Change from Baseline in AM and PM Combined Nasal Symptom Score: Sneezing, Median",Day 5,−1.03

# Source: US8758816B2, “Compositions comprising azelastine and methods of use thereof” (priority 2004, dated 2014)
